Source: patent US10189777B2, “Benzenesulfonamido and related compounds for use as agonists of RORγ and the treatment of disease” (Lycera Corporation, priority 2014, dated 2019)

Key:
Gal4-RORγ-LBD = target: T1, Gal4-RORγ-LBD (Homo sapiens, UniProt P51449); assay: Gal4-RORγ Luciferase Reporter Assay in HEK-293T Cells; format: cell-based; details: for EC50: HEK-293 cells, with 2 μM ursolic acid, incubated overnight, luciferase readout; for Gal4-RORγ Assay Max Response: upper plateau of 4-parameter fit, luciferase signal in the absence of ursolic acid or test compound defined at 100
T1 construct: expressed in transfected cells
T1 sequence (P51449 269-508 limits assumed): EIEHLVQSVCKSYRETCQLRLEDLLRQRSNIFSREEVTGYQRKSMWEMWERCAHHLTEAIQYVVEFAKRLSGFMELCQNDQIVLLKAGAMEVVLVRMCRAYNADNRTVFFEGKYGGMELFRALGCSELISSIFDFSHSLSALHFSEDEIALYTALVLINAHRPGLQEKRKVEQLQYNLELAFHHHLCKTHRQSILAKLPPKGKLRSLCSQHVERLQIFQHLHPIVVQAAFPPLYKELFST
Description: (§1) Exemplary compounds from the above Examples were tested for ability to increase RORγ activity using (i) a RORγ-Ligand Binding Domain (LBD) TR-FRET Assay, and (ii) a Gal4-RORγ Luciferase Reporter Assay in HEK-293T Cells. Assay procedures and results are described below.
Part II—Procedures for Gal4-RORγ Luciferase Reporter Assay in HEK-293T Cells
Transfection of HEK-293 Cells
In the following protocol, HEK-293 cells were transfected with a construct comprising the Gal4 DNA binding domain fused to the ligand binding domain of RORγ (Gal4-RORγ-LBD) in a pcDNA3.1neo plasmid, and also with a reporter construct comprising pGL4.31 Gal4-luciferase (Promega). Control cells were prepared similarly using empty pcDNA3.1neo and pGL4.31 vectors.
Trans-IT reagent (Mirus, 60 μL) at room temperature was added drop wise to OptiMEM (Invitrogen, 1.5 ml). This reagent mixture was mixed by inversion then incubated for 5 to 30 minutes at room temperature. It then was added to a solution of both expression vectors (5 μg each), mixed, and incubated at room temperature for about 20 minutes. HEK-293 cells were harvested from incubation flasks by removing the media, treating with TrypLE Express (Invitrogen), and incubating until the cells detached from the bottom of the flask (approximately 2-5 minutes). 10 Million cells were collected by centrifugation and re-suspended in 10 mL of Dulbecco's Modified Eagle Medium, High Glucose (DMEM, Invitrogen) containing 10% Fetal Bovine Serum and 100 IU each of penicillin and streptomycin. The re-suspended cells and the transfection mixture were added to a T75 flask, mixed and incubated overnight at 37° C. and 5% CO2.
The cells were harvested as described above, counted, and centrifuged to obtain the desired number of cells, then re-suspended in complete growth media at 0.75×10^6 cells/mL. The RORγ antagonist, ursolic acid, was added to the cells at a final concentration of 2 μM. Cells were plated at 20 μL of cell suspension/well (10,000-15,000 cells/well) in white tissue culture treated 384 well plates. Test compounds were dissolved at 10 mM in DMSO then diluted into complete growth medium to 5× the final intended test concentration. These drug stock solutions, 5 μL/well were added to the tissue culture plate. The final DMSO concentration was 0.2%. The plates were briefly centrifuged then incubated overnight at 37° C. and 5% CO2. To conduct the assay, the tissue culture plates were allowed to equilibrate to room temperature and One-Glo luciferase reagent (Promega, 25 μL/well) was added. The plates were briefly centrifuged then incubated at room temperature for 10 minutes. The luciferase intensity was read on an Envision plate reader (Perkin Elmer). RORγ activity was determined relative to controls and plotted as a function of test compound concentration using PRISM (GraphPad) to determine a 50% effective concentration (EC50). The luciferase signal in the absence of ursolic acid or test compound is defined at 100. The Max Response is the upper plateau in the signal as determined by line-fit using a 4-parameter logistic model in PRISM (GraphPad).

[1] = target: T2, HIS-tagged RORγ-LBD protein (Homo sapiens, UniProt P51449); assay: RORγ-Ligand Binding Domain (LBD) TR-FRET Assay; format: biochemical; details: for TR-FRET Assay Max Response: upper plateau of 4-parameter fit, signal in the absence of ursolic acid or test compound set as 100; for EC50: with 2 μM RORγ antagonist ursolic acid, biotinylated SRC1 LXXLL peptide, ratio 665 nm/615 nm
T2 construct: made in house; host or cells: SF9 cells, baculovirus expression system; the lysate was used
T2 sequence (P51449 269-508 limits assumed): T1 sequence (P51449 269-508 limits assumed)
Description: as §1
Part I—Procedures for RORγ-Ligand Binding Domain TR-FRET Assay
HIS-tagged RORγ-LBD protein was expressed in SF9 cells using a baculovirus expression system. The lysate was diluted in assay buffer (50 mM Tris pH 7.0, 50 mM KCl, 1 mM EDTA, 0.1 mM DTT, 0.01% BSA) to obtain RORγ-LBD final concentration of −3 nM in a 384-well assay plate (need to titrate for each batch of protein).
A stock of biotinylated-LXXLL peptide from coactivator SRC1 (Biotin-[…]) was prepared in assay buffer and added to each well (200 nM final concentration). A solution of Europium tagged anti-HIS antibody (0.6 nM final concentration) and APC-conjugated streptavidin (30 nM final concentration) were also added to each well. RORγ antagonist ursolic acid was also included at a final concentration of 2 μM. Compounds were diluted in DMSO and further diluted in assay buffer with a final DMSO concentration at 1%.
The final assay mixture was incubated overnight at 4° C. or 2 hours at room temperature, and the fluorescence signal was measured on an Envision plate reader: (Excitation filter=340 nm; APC emission=665 nm; Europium emission=615 nm; dichroic mirror=D400/D630; delay time=100 μs, integration time=200 μs). 50% Effective concentration (EC50) values for test compounds were calculated from the quotient of the fluorescence signal at 665 nm divided by the fluorescence signal at 615 nm. The quotient of the fluorescence signals in the absence of ursolic acid or test compound is set as 100. Max Response is defined as the upper plateau in the signal as determined by line-fit using a 4-parameter logistic model in PRISM (GraphPad).

SMILES	EC50 (Gal4-RORγ-LBD) [µM]	Gal4-RORγ Assay Max Response (Gal4-RORγ-LBD)	TR-FRET Assay Max Response [1]	EC50 [1] [µM]
CCN(c1cccc(OCc2cc(Cl)ccc2Cl)c1)S(=O)(=O)c1cccc(C(F)(F)F)c1	5 to 10	*** (The symbol “***” indicates a value in the range of greater than 150 to 200)	**** (The symbol “****” indicates a value greater than 200)	< 0.5
CCN(c1cccc(OCCc2c(Cl)cccc2Cl)c1)S(=O)(=O)c1cccc(C(F)(F)F)c1	0.5 to 5	** (The symbol “**” indicates a value in the range of greater than 90 to 150)	**** (The symbol “****” indicates a value greater than 200)	0.5 to 5
CCN(c1cccc(OC2CCc3cccc(F)c32)c1)S(=O)(=O)c1cccc(C(F)(F)F)c1 (stereo not shown)	> 10	**** (The symbol “****” indicates a value greater than 200)	*** (The symbol “***” indicates a value in the range of greater than 150 to 200)	< 0.5
CCOc1nn(CC)cc1S(=O)(=O)N(CC)c1cccc(OCc2c(F)cccc2Cl)c1	0.5 to 5	** (The symbol “**” indicates a value in the range of greater than 90 to 150)	**** (The symbol “****” indicates a value greater than 200)	0.5 to 5
CCN(c1cccc(OCCc2c(F)cccc2Cl)c1)S(=O)(=O)c1cccc(C(F)(F)F)c1	> 10	** (The symbol “**” indicates a value in the range of greater than 90 to 150)	*** (The symbol “***” indicates a value in the range of greater than 150 to 200)	0.5 to 5
CCN(c1cccc(OCc2c(Cl)cccc2Cl)c1)S(=O)(=O)c1cccc(C(F)(F)F)c1	0.5 to 5	** (The symbol “**” indicates a value in the range of greater than 90 to 150)	*** (The symbol “***” indicates a value in the range of greater than 150 to 200)	< 0.5
CCN(c1cccc(OCc2c(F)cccc2C(F)(F)F)c1)S(=O)(=O)c1cccc(C(F)(F)F)c1	0.5 to 5	** (The symbol “**” indicates a value in the range of greater than 90 to 150)	**** (The symbol “****” indicates a value greater than 200)	< 0.5
CCC(c1ccc(OCc2c(F)cccc2Cl)cc1)S(=O)(=O)c1cccc(C(F)(F)F)c1 (stereo not shown)	< 0.5	** (The symbol “**” indicates a value in the range of greater than 90 to 150)	*** (The symbol “***” indicates a value in the range of greater than 150 to 200)	< 0.5
CCOc1nn(CC)cc1S(=O)(=O)N(CC)c1cccc(OC2CCc3ccccc32)c1 (stereo not shown)	> 10		**** (The symbol “****” indicates a value greater than 200)	0.5 to 5
CCN(c1cccc(NCc2ccccc2Cl)c1)S(=O)(=O)c1cccc(C(F)(F)F)c1	0.5 to 5	** (The symbol “**” indicates a value in the range of greater than 90 to 150)	**** (The symbol “****” indicates a value greater than 200)	< 0.5
CCN(c1cccc(OCc2c(F)cccc2OC)c1)S(=O)(=O)c1cccc(C(F)(F)F)c1	> 10		**** (The symbol “****” indicates a value greater than 200)	< 0.5
CCN(c1cccc(OCc2ccccc2Cl)c1)S(=O)(=O)c1cccc(C(F)(F)F)c1	0.5 to 5	** (The symbol “**” indicates a value in the range of greater than 90 to 150)	**** (The symbol “****” indicates a value greater than 200)	0.5 to 5
CCC(c1ccc(OCc2c(F)cccc2Cl)cc1)S(=O)(=O)c1ccc(Cl)cc1 (stereo not shown)	0.5 to 5	* (The symbol “*” indicates a value in the range of 70 to 90)	*** (The symbol “***” indicates a value in the range of greater than 150 to 200)	< 0.5
CCN(c1cccc(OC2CCc3cccc(Cl)c32)c1)S(=O)(=O)c1cccc(C(F)(F)F)c1 (stereo not shown)	5 to 10	*** (The symbol “***” indicates a value in the range of greater than 150 to 200)	*** (The symbol “***” indicates a value in the range of greater than 150 to 200)	< 0.5
CCC(c1cccc(OCc2ccccc2)c1)S(=O)(=O)c1cccc(C(F)(F)F)c1 (stereo not shown)	0.5 to 5	* (The symbol “*” indicates a value in the range of 70 to 90)	** (The symbol “**” indicates a value in the range of greater than 90 to 150)	5 to 10
